What was measured:
Rotarod test = type: in vivo, mouse; conditions: mice, 60 mg/kg i.p.
Description: For rotarod tests, a rotarod module was inserted into a mouse home cage and was operated by the SmartCage™ (AfaSci, Inc., Redwood City, Calif.) system28. A mouse was placed on the rod and the rod began to rotate at a fixed speed (15 rpm). Latencies for the mice to fall off the rod were recorded. […] Two groups of mice (n=8 mice/group) were trained on the rotarod over 4 consecutive days. On training days, each mouse was allowed to perform on the rotarod a total of 4 times. For each training day, each mouse's lowest rotarod latency was excluded. The remaining 3 rotarod latencies were averaged and served as the mouse's rotarod performance for that training day. […] Approximately 1 hour post-drug/vehicle injection, each mouse's rotarod performance was assessed a total of 4 times with the mouse's worst performance being excluded. The remaining 3 rotarod latencies were then averaged for each mouse and these values were normalized to the mouse's previous performance on the final training day to account for variation in individual animal's competency on the rotarod.

hERG = molecular target: T1, hERG (Homo sapiens, UniProt Q12809); experiment: Radioligand displacement (Ricerca); type: binding
T1 construct: Ricerca (contract laboratory that ran the panel)
T1 sequence (Q12809 whole entry): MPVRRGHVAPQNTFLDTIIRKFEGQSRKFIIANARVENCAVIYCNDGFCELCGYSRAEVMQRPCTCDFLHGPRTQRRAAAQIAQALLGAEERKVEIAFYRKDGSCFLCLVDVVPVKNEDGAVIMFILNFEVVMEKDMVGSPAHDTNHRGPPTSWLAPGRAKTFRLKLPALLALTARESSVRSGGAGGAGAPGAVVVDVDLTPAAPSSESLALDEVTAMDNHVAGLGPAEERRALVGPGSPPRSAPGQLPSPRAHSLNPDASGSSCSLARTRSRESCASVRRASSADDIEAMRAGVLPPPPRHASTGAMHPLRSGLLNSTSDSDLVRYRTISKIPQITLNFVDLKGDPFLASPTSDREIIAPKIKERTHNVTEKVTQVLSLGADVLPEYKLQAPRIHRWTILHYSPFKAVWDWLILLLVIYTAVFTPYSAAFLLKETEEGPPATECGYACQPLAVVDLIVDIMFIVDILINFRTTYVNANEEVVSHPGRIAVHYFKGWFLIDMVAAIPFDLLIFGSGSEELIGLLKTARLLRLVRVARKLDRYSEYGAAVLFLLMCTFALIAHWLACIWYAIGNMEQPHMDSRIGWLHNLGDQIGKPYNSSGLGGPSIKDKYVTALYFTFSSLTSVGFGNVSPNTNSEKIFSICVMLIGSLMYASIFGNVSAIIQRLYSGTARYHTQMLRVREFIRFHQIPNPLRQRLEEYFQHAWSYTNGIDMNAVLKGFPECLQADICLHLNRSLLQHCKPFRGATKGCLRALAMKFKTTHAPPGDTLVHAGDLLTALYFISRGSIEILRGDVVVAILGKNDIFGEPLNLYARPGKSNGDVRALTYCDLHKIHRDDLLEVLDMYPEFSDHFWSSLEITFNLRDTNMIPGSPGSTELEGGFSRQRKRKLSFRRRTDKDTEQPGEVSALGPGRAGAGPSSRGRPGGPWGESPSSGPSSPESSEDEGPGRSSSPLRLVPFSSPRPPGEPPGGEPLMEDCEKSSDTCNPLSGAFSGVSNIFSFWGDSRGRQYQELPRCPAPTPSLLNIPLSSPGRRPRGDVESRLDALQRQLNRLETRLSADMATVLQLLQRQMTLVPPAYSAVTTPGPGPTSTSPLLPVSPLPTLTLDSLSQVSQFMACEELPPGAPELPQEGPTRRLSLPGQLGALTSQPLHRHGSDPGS

Kir2.1 = molecular target: T2, Kir2.1 (Homo sapiens, UniProt P63252); experiment: Thallium flux assay, Kir2.1-expressing cells; type: cell-based
T2 construct: expressed in transfected cells; host or cells: T-REx-293
T2 sequence (P63252 whole entry): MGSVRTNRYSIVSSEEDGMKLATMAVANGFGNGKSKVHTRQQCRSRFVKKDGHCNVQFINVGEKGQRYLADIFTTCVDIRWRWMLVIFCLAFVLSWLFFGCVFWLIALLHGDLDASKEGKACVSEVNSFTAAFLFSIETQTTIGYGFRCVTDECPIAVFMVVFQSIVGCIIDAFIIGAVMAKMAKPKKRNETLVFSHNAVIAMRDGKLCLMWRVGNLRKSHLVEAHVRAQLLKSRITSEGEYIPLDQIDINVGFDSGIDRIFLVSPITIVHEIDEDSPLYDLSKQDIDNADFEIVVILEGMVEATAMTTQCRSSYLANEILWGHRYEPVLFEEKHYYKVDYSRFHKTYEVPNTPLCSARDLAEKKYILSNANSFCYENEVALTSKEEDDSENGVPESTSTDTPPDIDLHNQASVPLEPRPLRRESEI
Description: Cell Line Construction and Cell Culture. HEK-293 cells co-expressing human GIRK1/2 and rat mGlu8 were generated as previously described (Niswender et al., 2008). A HEK-293 cell line (ATCC, Manassas, Va.) expressing human GIRK1 and human GIRK2 was constructed by transfecting HEK-293 cells with GIRK1 and GIRK2 (Origene, Rockville, Md.) cloned into the pBudCE4.1 vector (Life Technologies, Carlsbad, Calif.) using FuGene 6 (Promega, Madison, Wis.) transfection reagent. Unless otherwise noted, other ion channel-expressing cells were prepared by transfecting HEK-293 cells with individual or combinations of subunits: GIRK1, pCMV6-A-BSD; GIRK2, pCMV6-A-puro; GIRK3, pCMV6-A-hygro; GIRK4, pCMV6-A-AC; Kv7.4, pIRESneo3. The Kir2.1 and hERG-expressing cell lines were made by transfecting T-REx-293 cells (Life Technologies, Carlsbad, Calif.) with Kir2.1 and Kv11.1, respectively, cloned into pcDNA5TO. Monoclonal cell lines were produced by limiting-dilution cloning of antibiotic-resistant cells and functional selection using the thallium flux assay described below. Unless otherwise noted, cells were maintained in Minimal Essential Medium, Alpha Medium (Mediatech, Manassas, Va.) supplemented with 10% fetal bovine serum (Sigma-Aldrich, Saint Louis, Mo.) and GlutaGro (Mediatech, Manassas, Va.), referred to henceforth as cell culture medium. […]

[1] = Microsomal clearance, murine liver microsomes; type: in vitro ADME, mouse
Description: DMPK Methods. […] After a 5 min preincubation, the reaction was initiated by addition of NADPH (1 mM). At selected time intervals (0, 3, 7, 15, 25, and 45 min), 50 μL aliquots were taken and subsequently placed into a 96-well plate containing 150 μL of cold acetonitrile with internal standard (50 ng/mL carbamazepine). Plates were then centrifuged at 3000 rcf (4° C.) for 10 min, and the supernatant was transferred to a separate 96-well plate and diluted 1:1 with water for LC/MS/MS analysis. […] Liquid Chromatography/Mass Spectrometry Analysis. In vitro experiments. VU0456810 was analyzed on a Thermo Electron TSQ Quantum Ultra triple quad mass spectrometer (San Jose, Calif.) via electrospray ionization (ESI) with two Themo Electron Accella pumps (San Jose, Calif.), and a Leap Technologies CTC PAL autosampler (Carrboro, N.C.). Analytes were separated by gradient elution on a dual column system with two Thermo Hypersil Gold (2.1×30 mm, 1.9 μm) columns (San Jose, Calif.) at 40° C. […] The total run time was 1.3 min and the HPLC flow rate was 0.8 mL/min. […] Compound optimization, data collection and processing were performed using Thermo Electron's QuickQuan software (v2.3) and Xcalibur (v2.0.7 SP1).

Muscarinic M2 = molecular target: T3, Muscarinic M2 (Homo sapiens, UniProt P08172); experiment: Radioligand displacement (Ricerca); type: binding
T3 construct: Ricerca (contract laboratory that ran the panel)
T3 sequence (P08172 whole entry): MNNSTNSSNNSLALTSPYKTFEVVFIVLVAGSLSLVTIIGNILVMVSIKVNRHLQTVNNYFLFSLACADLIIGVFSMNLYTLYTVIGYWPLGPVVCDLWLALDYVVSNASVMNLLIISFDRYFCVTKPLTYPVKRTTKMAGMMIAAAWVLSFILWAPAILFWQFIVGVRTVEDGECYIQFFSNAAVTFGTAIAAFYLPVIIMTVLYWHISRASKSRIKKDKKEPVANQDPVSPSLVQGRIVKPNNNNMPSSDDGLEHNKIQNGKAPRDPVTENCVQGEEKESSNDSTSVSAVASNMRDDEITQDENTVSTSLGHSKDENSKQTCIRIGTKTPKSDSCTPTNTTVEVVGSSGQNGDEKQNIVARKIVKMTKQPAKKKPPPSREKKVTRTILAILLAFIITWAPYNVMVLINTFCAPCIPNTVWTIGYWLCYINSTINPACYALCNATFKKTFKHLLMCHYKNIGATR

For `Cc1cc(NC(=O)Nc2ccc(F)c(F)c2)n(-c2ccccc2)n1` [VU0456810, 1-(3,4-difluorophenyl)-3-(3-methyl-1-phenyl-1H-pyrazol-5-yl)urea], the “rotarod performance compared to vehicle” value (Rotarod test) was “small and insignificant decrease”, the “decrease in performance on the rotarod vs vehicle” value (Rotarod test; insignificant (p=0.7)) was 14% and the inhibition at 10 µM (hERG) was 10%. For the same molecule, the Potency (Kir2.1) was “Inactive”, the rClHEP [1] was 88 mL/min/kg and the CLhep predicted at 1 μM ([1]; mouse, pH 7.4) was 88 mL/min/kg. For the same molecule, the inhibition at 10 µM (Muscarinic M2) was -17%.

From patent US9067894B1, “Compound, composition, and method of activating GIRK potassium channel and use of same for treating conditions of interest” (Vanderbilt University, priority 2013, dated 2015)
